This is an account of results in patent publication EP1309253B1, “METHODS AND DEVICES FOR REMOVING NU[…] FROM TOBACCO AND TOBACCO SMOKE” (Cerami Consulting Corporation, priority 2000, dated 2002).

The conditions of this assay: 250 mg portions of each compound as filter; smoke from one cigarette drawn through 3 mls of distilled water; read at 405 nm; compared with control cigarette. The protocol: The treated fibers were then dried overnight at 37 C. The smoke from one cigarette was drawn through the filter material and then through 3 mls of distilled water using a water-pipe smoking device which was constructed from a 25 ml glass Erlenmeyer flask attached to a vacuum source with an air flow rate of approximately 35 ml/min. Three 100 microliter aliquots were removed from each flask, placed into ELISA plate wells and read in an ELISA plate reader at 405 nm. The percentage or tar removed is based on a comparison between the cigarette comprising the filter containing the test agent and an appropriate control cigarette.
The treated fibers were dried at 37 C overnight and then made into a tobacco cigarette using a tube cigarette maker. The smoke from 1 of each type of filter cigarette was then drawn through 3 mls of distilled water using a water-pipe smoking device which was constructed from a small (25 ml) glass Erlenmeyer flask attached to a vacuum source with an air flow rate of approximately 35 ml/min. Three 100 microliter aliquots were removed from each flask, placed into ELISA plated wells and read in an ELISA plate reader at 405 nm.
Turning to `O=C(/C=C/C(=O)c1ccccc1)c1ccccc1` [Fumarophenone], the “% TAR REMOVAL” value was 87.5%.

As to `CC12CCC(C(=O)C1=O)C2(C)C` (stereo not shown) [Camphorquinone], the “% TAR REMOVAL” value is 53.9%.

For `O=Cc1ccccc1C=O` [O-phthaldialdehyde], the “% TAR REMOVAL” value is reported as 84%.

On to `O=C1c2ccccc2C(=O)C1(O)C1(O)C(=O)c2ccccc2C1=O` [Hydrindantin], for which the “% TAR REMOVAL” value is recorded as 95%.

Consider `CC1(C)CC(=O)CC(=O)C1` [(5,5-dimethyl-1,3-cyclohexanedione, 5,5-dimethyl-1,3-cyclohexanedione], for which the “% TAR REMOVAL” value is listed as 26%.

For `O=Cc1cccc(OCCOc2cccc(C=O)c2)c1` [Ethylenedioxybis(3-benzaldehyde)], the “% TAR REMOVAL” value was 19.3%.

`O=C1NC(=O)C(=O)C(=O)N1` [Alloxan]: the “% TAR REMOVAL” value stood at 96.9%.

For `O=CC(=O)c1ccccc1` [Phenylglyoxal], the “% TAR REMOVAL” value is recorded as 53%.

`O=C(C=CC=Cc1ccccc1)C=CC=Cc1ccccc1` [Dicinnamalacetone]: the “% TAR REMOVAL” value was determined as 98.1%.

On to `O=C1C=C2CC3(O)COc4c(ccc(O)c4O)C3=C2C=C1O` (stereo not shown) [Hematein, 6a,7-dihydro-3,4,6a,10 tetrahydroxyben[b]indeno[1,2-d]pyran-9(6H)-one], for which the “% TAR REMOVAL” value was found to be 48.7%.

As to `C[C@H](NC(=O)OC(C)(C)C)C(=O)ON1C(=O)CCC1=O` [N-α-t-BOC-L-alanine-N-hydroxysuccinimide ester], the “% TAR REMOVAL” value came to 25%.

As to `CC(C)(C)OC(=O)NCCCCCC(=O)ON1C(=O)CCC1=O` [BOC-ε-aminocaproic acid-N-hydroxysuccinimide ester], the “% TAR REMOVAL” value is recorded as 74%.

For `O=C1c2ccccc2C(=O)C1(O)O` [Ninhydrin], the “% TAR REMOVAL” value is on record as 83%.
